Experiments:
Type in all cases: in vivo
[1] = tested on: redroot pigweed (Amaranthus retroflexus, AMARE); experiment: Pre-emerge test, greenhouse herbicide activity screening; settings: phytotoxicity rating 0-100, 14 days after application
Outline: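 Herbicidal damage is scored 0 (none) to 100 (complete plant death) two weeks after a simulated field spray. Rates span 15–1000 g ai/ha, delivered in acetone at 187 l/ha. For post-emergence treatments, plants have 2–3 leaves and the spray carries 0.25% v/v non-ionic surfactant.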

[2] = tested on: velvetleaf (Abutilon theophrasti, ABUTH); experiment: as above; settings: phytotoxicity rating 0-100, 14 days after application
Source text: (§1) A standard greenhouse herbicide activity screening system was used to evaluate the herbicidal efficacy and crop safety of these test compounds. Seven broadleaf weed species including redroot pigweed (Amaranthus retroflexus, AMARE, velvetleaf (Abutilon theophrasti, ABUTH), sicklepod (Cassia obtusifolia, CASOB), ivyleaf morningglory (Ipomoea hederacea, IPOHE), lambsquarters (Chenopodium album, CHEAL), common ragweed (Ambrosia artemisizfolia L., AMBEL), and cocklebur (Xanthium strumarium, XANST) were used as test species. Four grass weed species including green foxtail (Setaria viridis, SETVI), barnyardgrass (Echinochloa crus-galli, ECHCG), johnsongrass (Sorghum halepense, SORHA), and large crabgrass (Digitaria sanguinalis, DIGSA) were also used. In addition, three crop species, field corn (Zea mays L., var. Dekalb 535, CORN), soybean (Glycine max L., var. Pella 86, SOY), and is upland rice (Oryza sp., var. Tebonnet, RICE) were included.
(§2) All plants were grown in 10 cm square plastic pots which were filled with a sandy loam soil mix. For pre-emerge tests, seeds were planted one day prior to application of the test compounds. For post-emerge tests, seeds were planted 8-21 days prior to the test to allow emergence and good foliage development prior to application of the test substances. At the time of the post-emerge application, plants of all species were usually at the 2-3 leaf stage of development.
(§3) All test compounds Were dissolved in acetone and applied to the test units in a volume of 187 l /ha. Test materials were applied at rates ranging from 15 g ai/ha to 1000 g ai/ha using a track sprayer equipped with a TJ8001E even flow flat fan spray nozzle. Plants were arranged on a shelf so that the top of the canopy (post-emerge) or top of the soil surface (pre-emerge) was 40-45 cm below the nozzle. Pressurized air was used to force the test solution through the nozzle as it was mechanically advanced (via electrically driven chain drive) over the top of all test plants/pots. This application simulates a typical commercial field herbicide application.
(§4) In the post-emerge test, a commercial non-ionic surfactant was also included (0.25% v/v) to enhance wetting of the leaf surfaces of target plants. Immediately after application, test units of the pre-emerge applications were watered at the soil surface to incorporate the test materials. Subsequently, these test units were bottom-watered. Post-emerge test units were always bottom-watered.
(§5) At 14 days after application of the test materials, phytotoxicity ratings were recorded. A rating scale of 0-100 was used as previously described in Research Methods in Weed Science, 2nd edition, B. Truelove, Ed., Southern Weed Science Society, Auburn University, Auburn, Ala. 1977. Briefly, “0” corresponds to no damage and “100” corresponds to complete death of all plants in the test unit. This scale was used both to determine efficacy against weed species and damage to crop species. Herbicide activity data for various compounds of this invention, which are shown by compound No. in Tables 1-8, are shown in Tables 11 and 12.

[3] = tested on: large crabgrass (Digitaria sanguinalis, DIGSA); experiment: as above; settings: phytotoxicity rating 0-100, 14 days after application
Source text: as §1, §2, §3, §4, §5

[4] = tested on: sicklepod (Cassia obtusifolia, CASOB); experiment: as above; settings: phytotoxicity rating 0-100, 14 days after application
Source text: as §1, §2, §3, §4, §5

[5] = tested on: green foxtail (Setaria viridis, SETVI); experiment: as above; settings: phytotoxicity rating 0-100, 14 days after application
Source text: as §1, §2, §3, §4, §5

[6] = tested on: lambsquarters (Chenopodium album, CHEAL); experiment: as above; settings: phytotoxicity rating 0-100, 14 days after application
Source text: as §1, §2, §3, §4, §5

[7] = tested on: barnyardgrass (Echinochloa crus-galli, ECHCG); experiment: as above; settings: phytotoxicity rating 0-100, 14 days after application
Source text: as §1, §2, §3, §4, §5

[8] = tested on: ivyleaf morningglory (Ipomoea hederacea, IPOHE); experiment: as above; settings: phytotoxicity rating 0-100, 14 days after application
Source text: as §1, §2, §3, §4, §5

[9] = tested on: upland rice (Oryza sp., var. Tebonnet, RICE); experiment: Pre-emerge test, crop safety; settings: crop damage rating 0-100, 14 days after application
Outline: (§6)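 Compounds in acetone were track-sprayed at 187 l/ha, 15–1000 g ai/ha, onto sandy loam pots. Pre-emerge seeds were sown one day before spraying, with surface watering afterwards. Post-emerge plants were at the 2–3 leaf stage and sprayed with 0.25% v/v non-ionic surfactant. Injury was rated 0–100 at 14 days.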

[10] = tested on: field corn (Zea mays L., var. Dekalb 535, CORN); experiment: Pre-emerge test, crop safety; settings: crop damage rating 0-100, 14 days after application
Outline: as §6

[11] = tested on: upland rice (Oryza sp., var. Tebonnet, RICE); experiment: Post-emerge test, crop safety; settings: post-emerge, 14 days after application, rating scale 0-100
Outline: (§7)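 Each test used a mechanized track sprayer delivering 187 l/ha of acetone solution at 15–1000 g ai/ha. Post-emerge foliage at 2–3 leaves was treated with added 0.25% v/v non-ionic surfactant and bottom-watered only. Injury was assessed on day 14, where 100 means total kill.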

[12] = tested on: field corn (Zea mays L., var. Dekalb 535, CORN); experiment: Post-emerge test, crop safety; settings: post-emerge, 14 days after application, rating scale 0-100
Outline: as §7

[13] = tested on: velvetleaf (Abutilon theophrasti, ABUTH); experiment: Post-emerge test, greenhouse herbicide activity screening; settings: post-emerge, 14 days after application, rating scale 0-100
Source text: as §1, §2, §3, §4, §5

[14] = tested on: large crabgrass (Digitaria sanguinalis, DIGSA); experiment: as above; settings: post-emerge, 14 days after application, rating scale 0-100
Source text: as §1, §2, §3, §4, §5

[15] = tested on: sicklepod (Cassia obtusifolia, CASOB); experiment: as above; settings: post-emerge, 14 days after application, rating scale 0-100
Source text: as §1, §2, §3, §4, §5

[16] = tested on: green foxtail (Setaria viridis, SETVI); experiment: as above; settings: post-emerge, 14 days after application, rating scale 0-100
Source text: as §1, §2, §3, §4, §5

[17] = tested on: redroot pigweed (Amaranthus retroflexus, AMARE); experiment: as above; settings: post-emerge, 14 days after application
Source text: as §1, §2, §3, §4, §5

[18] = tested on: lambsquarters (Chenopodium album, CHEAL); experiment: as above; settings: post-emerge, 14 days after application, rating scale 0-100
Source text: as §1, §2, §3, §4, §5

[19] = tested on: barnyardgrass (Echinochloa crus-galli, ECHCG); experiment: as above; settings: post-emerge, 14 days after application, rating scale 0-100
Source text: as §1, §2, §3, §4, §5

[20] = tested on: ivyleaf morningglory (Ipomoea hederacea, IPOHE); experiment: as above; settings: post-emerge, 14 days after application, rating scale 0-100
Source text: as §1, §2, §3, §4, §5

COc1c(Cl)cc(F)c(-n2c(=O)cc(C(F)(F)F)n(C)c2=O)c1NC(=O)OCc1ccc(C(F)(F)F)cc1 [4-43]
Pre-emerge Herbicidal Activity AMARE ([1]; 63 g ai/ha): 10
Pre-emerge Herbicidal Activity AMARE ([1]; 250 g ai/ha): 60
Pre-emerge Herbicidal Activity ABUTH ([2]; 63 g ai/ha): 20
Pre-emerge Herbicidal Activity ABUTH ([2]; 250 g ai/ha): 50
Pre-emerge Herbicidal Activity DIGSA ([3]; 63 g ai/ha): 0
Pre-emerge Herbicidal Activity DIGSA ([3]; 250 g ai/ha): 60
Pre-emerge Herbicidal Activity CASOB ([4]; 63 g ai/ha): 0
Pre-emerge Herbicidal Activity CASOB ([4]; 250 g ai/ha): 40
Pre-emerge Herbicidal Activity SETVI ([5]; 63 g ai/ha): 0
Pre-emerge Herbicidal Activity SETVI ([5]; 250 g ai/ha): 70
Pre-emerge Herbicidal Activity CHEAL ([6]; 63 g ai/ha): 30
Pre-emerge Herbicidal Activity CHEAL ([6]; 250 g ai/ha): 80
Pre-emerge Herbicidal Activity ECHCG ([7]; 63 g ai/ha): 0
Pre-emerge Herbicidal Activity ECHCG ([7]; 250 g ai/ha): 10
Pre-emerge Herbicidal Activity IPOHE ([8]; 63 g ai/ha): 0
Pre-emerge Herbicidal Activity IPOHE ([8]; 250 g ai/ha): 10
Pre-emerge Herbicidal Activity RICE ([9]; 63 g ai/ha): 0
Pre-emerge Herbicidal Activity RICE ([9]; 250 g ai/ha): 10
Pre-emerge Herbicidal Activity CORN ([10]; 63 g ai/ha): 0
Pre-emerge Herbicidal Activity CORN ([10]; 250 g ai/ha): 0
phytotoxicity rating RICE (crop damage) ([11]; 63 g ai/ha): 0
phytotoxicity rating RICE (crop damage) ([11]; 250 g ai/ha): 0
phytotoxicity rating CORN (crop damage) ([12]; 63 g ai/ha): 0
phytotoxicity rating CORN (crop damage) ([12]; 250 g ai/ha): 10
phytotoxicity rating ABUTH ([13]; 63 g ai/ha): 60
phytotoxicity rating ABUTH ([13]; 250 g ai/ha): 100
phytotoxicity rating DIGSA ([14]; 63 g ai/ha): 0
phytotoxicity rating DIGSA ([14]; 250 g ai/ha): 0
phytotoxicity rating CASOB ([15]; 63 g ai/ha): 50
phytotoxicity rating CASOB ([15]; 250 g ai/ha): 60
phytotoxicity rating SETVI ([16]; 63 g ai/ha): 0
phytotoxicity rating SETVI ([16]; 250 g ai/ha): 40
phytotoxicity rating AMARE ([17]; 63 g ai/ha, rating scale 0-100 (0 no damage, 100 complete death)): 70
phytotoxicity rating AMARE ([17]; 250 g ai/ha, rating scale 0-100): 100
phytotoxicity rating CHEAL ([18]; 63 g ai/ha): 80
phytotoxicity rating CHEAL ([18]; 250 g ai/ha): 90
phytotoxicity rating ECHCG ([19]; 63 g ai/ha): 0
phytotoxicity rating ECHCG ([19]; 250 g ai/ha): 10
phytotoxicity rating IPOHE ([20]; 63 g ai/ha): 40
phytotoxicity rating IPOHE ([20]; 250 g ai/ha): 40

— US6355799B1, “Substituted benzene compounds, process for their preparation, and herbicidal and defoliant compositions containing them” (ISK Americas Incorporated, priority 1997, dated 2002)
